Data reported in ChEMBL document CHEMBL1201862, “PubChem BioAssay data set” (2004).
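Following 48 hours of exposure in 96-well plates, responses at five concentrations were used to interpolate endpoints linearly. The concentration for 50% growth inhibition is given as GI50.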 The source made the active and inactive calls. Cut-off read from the data, not from the text of the source: active = GI50 up to about 1.1 µM and inactive = higher.

Legend:
Test in all cases: NCI anticancer screen, dose series, 48 h
A549 = test system: A549
CCRF-CEM = test system: CCRF-CEM
EKVX = test system: EKVX
HCT-15 = test system: HCT-15
HT-29 = test system: HT-29
IGROV-1 = test system: IGROV-1
LOX IMVI = test system: LOX IMVI
M14 = test system: M14
MDA-MB-231 = test system: MDA-MB-231
Malme-3M = test system: Malme-3M
OVCAR-5 = test system: OVCAR-5
RXF 393 = test system: RXF 393
SF-295 = test system: SF-295
SN12C = test system: SN12C
SNB-19 = test system: SNB-19
SR = test system: SR
T47D = test system: T47D
UACC-257 = test system: UACC-257
UO-31 = test system: UO-31
SK-MEL-2 = test system: SK-MEL-2

| SMILES | GI50 (A549) | GI50 (CCRF-CEM) | GI50 (EKVX) | GI50 (HCT-15) [µM] | GI50 (HT-29) | GI50 (IGROV-1) | GI50 (LOX IMVI) | GI50 (M14) | GI50 (MDA-MB-231) | GI50 (Malme-3M) | GI50 (OVCAR-5) | GI50 (RXF 393) | GI50 (SF-295) | GI50 (SN12C) | GI50 (SNB-19) | GI50 (SR) | GI50 (T47D) | GI50 (UACC-257) | GI50 (UO-31) | GI50 (SK-MEL-2) |
| --- | --- | --- | --- | --- | --- | --- | --- | --- | --- | --- | --- | --- | --- | --- | --- | --- | --- | --- | --- | --- |
| COc1ccc2c(O)c(Oc3ccc(Cl)cc3)c(=O)oc2c1 | > 100 µM (inactive) | > 100 µM (inactive) | > 100 µM (inactive) | 41.4 | > 100 µM (inactive) | 60 µM (inactive) | > 100 µM (inactive) | 88.9 µM (inactive) | > 100 µM (inactive) | 60.7 µM (inactive) | > 100 µM (inactive) | 35.3 µM (inactive) | > 100 µM (inactive) | > 100 µM (inactive) | 31.4 µM (inactive) | > 100 µM (inactive) | 55.6 µM (inactive) | > 100 µM (inactive) | 27.5 µM (inactive) | – |
| O=C(/N=N/c1cccc(Cl)c1)NNc1cccc(Cl)c1 | 24.5 µM (inactive) | 18.2 µM (inactive) | – | 17.6 | 22.9 µM (inactive) | 17.5 µM (inactive) | 12.9 µM (inactive) | 14.4 µM (inactive) | 23.2 µM (inactive) | 16.7 µM (inactive) | 15.8 µM (inactive) | – | – | 11.7 µM (inactive) | 20.8 µM (inactive) | 13.8 µM (inactive) | 10.8 µM (inactive) | 19.1 µM (inactive) | 8.49 µM (inactive) | 11.5 µM (inactive) |
| O=c1[nH]nc(Cc2ccccc2)n1/N=C/c1ccncc1 | > 100 µM (inactive) | > 100 µM (inactive) | > 100 µM (inactive) | > 100 | > 100 µM (inactive) | > 100 µM (inactive) | > 100 µM (inactive) | > 100 µM (inactive) | > 100 µM (inactive) | > 100 µM (inactive) | > 100 µM (inactive) | > 100 µM (inactive) | > 100 µM (inactive) | > 100 µM (inactive) | > 100 µM (inactive) | > 100 µM (inactive) | > 100 µM (inactive) | > 100 µM (inactive) | > 100 µM (inactive) | – |
| O=C1N[C@@H]2O[C@H](CNC(=O)c3cc(Br)c[nH]3)C[C@]2(O)N1.O=C1N[C@H]2O[C@H](CNC(=O)c3cc(Br)c[nH]3)C[C@@]2(O)N1 | > 100 µM (inactive) | – | > 100 µM (inactive) | > 100 | > 100 µM (inactive) | > 100 µM (inactive) | – | > 100 µM (inactive) | > 100 µM (inactive) | > 100 µM (inactive) | > 100 µM (inactive) | – | > 100 µM (inactive) | > 100 µM (inactive) | > 100 µM (inactive) | 0.379 µM (active) | > 100 µM (inactive) | > 100 µM (inactive) | > 100 µM (inactive) | > 100 µM (inactive) |
| CC(C)(C)OC(=O)N/N=C(/N)c1ccccc1 | > 100 µM (inactive) | > 100 µM (inactive) | > 100 µM (inactive) | > 100 | > 100 µM (inactive) | > 100 µM (inactive) | > 100 µM (inactive) | > 100 µM (inactive) | > 100 µM (inactive) | > 100 µM (inactive) | > 100 µM (inactive) | > 100 µM (inactive) | > 100 µM (inactive) | > 100 µM (inactive) | > 100 µM (inactive) | – | > 100 µM (inactive) | > 100 µM (inactive) | > 100 µM (inactive) | > 100 µM (inactive) |
| COc1cc2cc(C(=O)N3CC(CCl)c4ccc([N+](=O)[O-])cc43)[nH]c2c(OC)c1OC (centres undefined) | > 100 µM (inactive) | > 100 µM (inactive) | 30.8 µM (inactive) | > 100 | 17.4 µM (inactive) | > 100 µM (inactive) | > 100 µM (inactive) | > 100 µM (inactive) | > 100 µM (inactive) | > 100 µM (inactive) | > 100 µM (inactive) | > 100 µM (inactive) | > 100 µM (inactive) | > 100 µM (inactive) | > 100 µM (inactive) | – | > 100 µM (inactive) | > 100 µM (inactive) | > 100 µM (inactive) | > 100 µM (inactive) |
| O=C(O)c1cncc(C(=O)O)c1 | > 100 µM (inactive) | > 100 µM (inactive) | > 100 µM (inactive) | > 100 | > 100 µM (inactive) | > 100 µM (inactive) | > 100 µM (inactive) | > 100 µM (inactive) | > 100 µM (inactive) | > 100 µM (inactive) | > 100 µM (inactive) | > 100 µM (inactive) | > 100 µM (inactive) | > 100 µM (inactive) | > 100 µM (inactive) | – | > 100 µM (inactive) | > 100 µM (inactive) | > 100 µM (inactive) | > 100 µM (inactive) |
